We go through 25 compounds from patent US9988400B2 (Genentech, Inc., priority 2013, dated 2018).

This experiment addresses T1, HEK cells stably transfected with tetracycline inducible hNR1 and hNR2A (Homo sapiens, UniProt Q05586+Q12879).
T1 construct: expressed in transfected cells; host or cells: HEK cells, stably transfected, tetracycline/doxycycline inducible
Kind of experiment: Assay 1: Cell-Based Assay, cytosolic calcium response to positive allosteric modulators (with 30 μM glycine and 300 nM L-glutamate, EC30). The note with it: Table 2; for EC50: cytosolic calcium response, with 30 μM glycine and 300 nM L-glutamate (EC30), — = no plateau was reached; for Max %: responses scaled relative to 100 μM L-glutamate maximal response (100%) and 0 μM L-glutamate (0%). The procedure, abridged: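 Cells induced 24 h with 7.5 μg mL^−1 doxycycline plus 500 μM (+)-ketamine, loaded 60 min at 37 °C with calcium dye in Mg-free HBSS (1.8 mM Ca, probenecid, 10 μM (+)-ketamine, pH 7.15). Peak RFU over 5 min after compound addition, scaled to 100 μM L-glutamate (100%) and 0 μM (0%); four-parameter Hill fit for EC50, max % if no plateau.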

T1 sequence (Q12879 23-1464, other chains not shown): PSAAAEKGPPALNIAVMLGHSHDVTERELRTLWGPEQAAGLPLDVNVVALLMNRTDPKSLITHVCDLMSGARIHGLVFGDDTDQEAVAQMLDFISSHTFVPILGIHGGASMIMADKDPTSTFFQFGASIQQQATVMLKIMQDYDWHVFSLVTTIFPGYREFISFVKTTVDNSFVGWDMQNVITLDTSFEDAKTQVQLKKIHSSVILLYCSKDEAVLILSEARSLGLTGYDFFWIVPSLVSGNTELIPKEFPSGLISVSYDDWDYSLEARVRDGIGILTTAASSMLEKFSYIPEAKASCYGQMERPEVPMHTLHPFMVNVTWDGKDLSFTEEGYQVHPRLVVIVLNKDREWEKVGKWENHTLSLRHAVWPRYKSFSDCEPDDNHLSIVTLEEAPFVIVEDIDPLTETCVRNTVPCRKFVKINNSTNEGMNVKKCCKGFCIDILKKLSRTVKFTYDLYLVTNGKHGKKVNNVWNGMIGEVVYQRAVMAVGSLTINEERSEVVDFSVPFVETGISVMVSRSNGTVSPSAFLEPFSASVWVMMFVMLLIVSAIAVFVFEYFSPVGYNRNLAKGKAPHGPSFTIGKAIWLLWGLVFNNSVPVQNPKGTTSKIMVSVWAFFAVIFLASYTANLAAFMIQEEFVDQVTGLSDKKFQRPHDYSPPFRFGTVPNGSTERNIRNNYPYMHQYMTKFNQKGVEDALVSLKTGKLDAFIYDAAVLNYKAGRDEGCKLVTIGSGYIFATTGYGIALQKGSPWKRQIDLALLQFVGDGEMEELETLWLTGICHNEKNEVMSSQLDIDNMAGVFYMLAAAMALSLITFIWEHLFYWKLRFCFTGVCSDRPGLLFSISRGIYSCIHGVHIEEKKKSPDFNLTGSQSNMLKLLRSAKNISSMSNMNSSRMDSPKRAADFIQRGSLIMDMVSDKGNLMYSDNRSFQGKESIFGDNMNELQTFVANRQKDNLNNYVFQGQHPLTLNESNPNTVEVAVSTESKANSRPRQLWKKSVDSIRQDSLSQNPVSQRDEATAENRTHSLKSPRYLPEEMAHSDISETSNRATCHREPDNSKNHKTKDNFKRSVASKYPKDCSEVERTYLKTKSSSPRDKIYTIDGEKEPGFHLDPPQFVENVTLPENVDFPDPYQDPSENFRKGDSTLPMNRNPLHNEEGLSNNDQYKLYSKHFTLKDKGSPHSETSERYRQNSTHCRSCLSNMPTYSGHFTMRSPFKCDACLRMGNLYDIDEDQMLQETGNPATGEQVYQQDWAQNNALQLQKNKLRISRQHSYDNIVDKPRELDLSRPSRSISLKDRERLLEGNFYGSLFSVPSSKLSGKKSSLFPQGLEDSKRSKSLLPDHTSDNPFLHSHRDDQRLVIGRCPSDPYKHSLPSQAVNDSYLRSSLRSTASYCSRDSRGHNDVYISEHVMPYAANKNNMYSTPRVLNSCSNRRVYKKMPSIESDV

For orientation: EC50 means the concentration that produces a half-maximal response. With `Cc1sc2nc(Cc3cccc(C#N)c3)c(F)c(=O)n2c1C1CC1CO` (stereo not shown) [Example 20.2, 3-((6-fluoro-3-(2-(hydroxymethyl)cyclopropyl)-2-methyl-5-oxo-5H-thiazolo[3,2-a]pyrimidin-7-yl)methyl)benzonitrile], the EC50 came out at 7.4 µM and the Max % is 145%.
With `Cc1sc2nc(Cc3ccc(C(F)(F)F)cc3)cc(=O)n2c1C1CC1CO` (stereo not shown) [Example 20.11, 3-(2-(hydroxymethyl)cyclopropyl)-2-methyl-7-(4-(trifluoromethyl)benzyl)-5H-thiazolo[3,2-a]pyrimidin-5-one], the EC50 came out at 31.2 µM and the Max % was found to be 78.7%.
For the compound `CNC(=O)c1c(C)sc2nc(Cc3cccc(C#N)c3)cc(=O)n12` [Example 21.1, 7-(3-cyanobenzyl)-N,2-dimethyl-5-oxo-5H-thiazolo[3,2-a]pyrimidine-3-carboxamide], the Max % came out at 96.6%.
Regarding `CNC(=O)c1c(C)sc2nc(Cc3cccc(C#N)c3F)cc(=O)n12` [Example 21.2, 7-(3-cyano-2-fluorobenzyl)-N,2-dimethyl-5-oxo-5H-thiazolo[3,2-a]pyrimidine-3-carboxamide], the EC50 was determined as 21.6 µM and the Max % turned out to be 133%.
Regarding `CCNC(=O)c1c(C)sc2nc(Cc3cccc(Cl)c3F)cc(=O)n12` [Example 21.3, 7-(3-chloro-2-fluorobenzyl)-N-ethyl-2-methyl-5-oxo-5H-thiazolo[3,2-a]pyrimidine-3-carboxamide], the EC50 was found to be 7.6 µM and the Max % came out at 131%.
With `CNC(=O)c1c(C)sc2nc(Cc3cccc(C(F)(F)F)c3F)cc(=O)n12` [Example 21.4], the EC50 was found to be 7.4 µM and the Max % is recorded as 129%.
Regarding `CCNC(=O)c1c(C)sc2nc(Cc3cccc(C)c3F)cc(=O)n12` [Example 21.5, N-ethyl-7-(2-fluoro-3-methylbenzyl)-2-methyl-5-oxo-5H-thiazolo[3,2-a]pyrimidine-3-carboxamide], the EC50 is 18.9 µM and the Max % is 124%.
For the compound `CCNC(=O)c1c(C)sc2nc(Cc3cc(C#N)ccc3Cl)cc(=O)n12` [Example 21.6, 7-(2-chloro-5-cyanobenzyl)-N-ethyl-2-methyl-5-oxo-5H-thiazolo[3,2-a]pyrimidine-3-carboxamide], the EC50 was determined as 45.3 µM and the Max % came to 114%.
With `CCNC(=O)c1c(C)sc2nc(Cc3cccc(C(F)(F)F)c3)cc(=O)n12` [Example 21.7, N-ethyl-2-methyl-5-oxo-7-(3-(trifluoromethyl)benzyl)-5H-thiazolo[3,2-a]pyrimidine-3-carboxamide], the Max % amounted to 100%.
For `CCNC(=O)c1c(C)sc2nc(Cc3cccc(C#N)c3)cc(=O)n12` [Example 21.8, 7-(3-cyanobenzyl)-N-ethyl-2-methyl-5-oxo-5H-thiazolo[3,2-a]pyrimidine-3-carboxamide], the Max % worked out at 99.3%.
In the case of `CCNC(=O)c1c(C2CC2)sc2nc(Cc3cccc(C#N)c3F)cc(=O)n12` [Example 21.9, 7-(3-cyano-2-fluorobenzyl)-2-cyclopropyl-N-ethyl-5-oxo-5H-thiazolo[3,2-a]pyrimidine-3-carboxamide], the Max % is 90.1%.
Still for that read-out and setting: in the case of `CCNC(=O)c1c(C)sc2nc(Cc3cc(F)cc(C#N)c3)cc(=O)n12` [Example 21.10, 7-(3-cyano-5-fluorobenzyl)-N-ethyl-2-methyl-5-oxo-5H-thiazolo[3,2-a]pyrimidine-3-carboxamide] it was 70.3%.
For `CCNC(=O)c1c(C)sc2nc(Cc3cccc(C#N)c3)cc(=O)n12` [Example 21.11, 7-(3-cyanobenzyl)-N-ethyl-2-methyl-5-oxo-5H-thiazolo[3,2-a]pyrimidine-3-carboxamide], the Max % turned out to be 47%.
As to `CCNC(=O)c1c(C)sc2nc(Cc3cccc(C(F)(F)F)c3F)cc(=O)n12` [Example 21.12, N-ethyl-7-(2-fluoro-3-(trifluoromethyl)benzyl)-2-methyl-5-oxo-5H-thiazolo[3,2-a]pyrimidine-3-carboxamide], the concentration for a half-maximal effect (EC50) amounted to 6.7 µM.
Take `CCNC(=O)c1c(C)sc2nc(Cc3cccc(C#N)c3F)cc(=O)n12` [Example 21.13, 7-(3-cyano-2-fluorobenzyl)-N-ethyl-2-methyl-5-oxo-5H-thiazolo[3,2-a]pyrimidine-3-carboxamide]: the EC50 worked out at 12.3 µM and the Max % turned out to be 131%.
For `CNC(=O)c1c(C)sc2nc(Cc3cccc(Cl)c3F)cc(=O)n12` [Example 21.14, 7-[(3-chloro-2-fluoro-phenyl)methyl]-N,2-dimethyl-5-oxo-thiazolo[3,2-a]pyrimidine-3-carboxamide], in that order: 11 µM and 112%.
In the case of `CNC(=O)c1c(C)sc2nc(Cc3cccc(C(F)(F)F)c3)cc(=O)n12` [Example 21.15, N,2-dimethyl-5-oxo-7-[[3-(trifluoromethyl)phenyl]methyl]thiazolo[3,2-a]pyrimidine-3-carboxamide], the Max % was determined as 112%.
As for `CNC(=O)c1c(C)sc2nc(Cc3cccc(Cl)c3)cc(=O)n12` [Example 21.16, 7-[(3-chlorophenyl)methyl]-N,2-dimethyl-5-oxo-thiazolo[3,2-a]pyrimidine-3-carboxamide], the concentration for a half-maximal effect (EC50) was 14.3 µM and the Max % is on record as 107%.
For the compound `CNC(=O)c1c(C)sc2nc(Cc3cc(C(F)(F)F)ccc3C3CC3)cc(=O)n12` [Example 21.17, 7-[[2-cyclopropyl-5-(trifluoromethyl)phenyl]methyl]-N,2-dimethyl-5-oxo-thiazolo[3,2-a]pyrimidine-3-carboxamide], the EC50 was determined as 23.7 µM and the Max % amounted to 107%.
With `CCNC(=O)c1c(C)sc2nc(Cc3cccc(C(F)(F)F)n3)cc(=O)n12` [Example 21.18, N-ethyl-2-methyl-5-oxo-7-((6-(trifluoromethyl)pyridine-2-yl)methyl)-5H-thiazolo[3,2-a]pyrimidine-3-carboxamide], the Max % is reported as 58.5%.
For `CCNC(=O)c1c(C)sc2nc(Cc3cc(F)c(F)cc3CC)cc(=O)n12` [Example 21.19, N-ethyl-7-(2-ethyl-4,5-difluorobenzyl)-2-methyl-5-oxo-5H-thiazolo[3,2-a]pyrimidine-3-carboxamide], the concentration for a half-maximal effect (EC50) came out at 7.4 µM and the Max % is recorded as 145%.
On to `CCNC(=O)c1c(C)sc2nc(Cc3cccc(C(F)F)c3F)cc(=O)n12` [Example 21.20, 7-[[3-(difluoromethyl)-2-fluoro-phenyl]methyl]-N-ethyl-2-methyl-5-oxo-thiazolo[3,2-a]pyrimidine-3-carboxamide], for which the EC50 was 5.2 µM and the Max % is 114%.
Turning to `CCNC(=O)c1c(C)sc2nc(Cc3cc(F)ccc3CC)cc(=O)n12` [Example 21.21], the 50% effective concentration (EC50) turned out to be 33.6 µM and the Max % is 134%.
With `CCNC(=O)c1c(C)sc2nc(Cc3cccc(C#N)n3)cc(=O)n12` [Example 21.22, 7-((6-cyanopyridin-2-yl)methyl)-N-ethyl-2-methyl-5-oxo-5H-thiazolo[3,2-a]pyrimidine-3-carboxamide], the Max % turned out to be 60.1%.
Consider `CNC(=O)c1c(C)sc2nc(Cc3cccc(C(F)F)c3F)cc(=O)n12` [Example 21.23, 7-[[3-(difluoromethyl)-2-fluoro-phenyl]methyl]-N,2-dimethyl-5-oxo-thiazolo[3,2-a]pyrimidine-3-carboxamide], for which the half-maximal effective concentration (EC50) amounted to 6.5 µM and the Max % is on record as 107%.
